Experimental data reported in ChEMBL document CHEMBL1152385, “Cyanoguanidine-based lactam derivatives as a novel class of orally bioavailable factor Xa inhibitors” (Bioorg Med Chem Lett, 2009).
One block for each molecule: values may come before it.

What was measured:
[1] = target: Amine oxidase [flavin-containing] A (Rattus norvegicus, UniProt P21396); experiment: Inhibition of rat MAO-A at 10 uM
[2] = target: Amine oxidase [flavin-containing] B (Rattus norvegicus, UniProt P19643); experiment: Inhibition of rat MAO-B at 10 uM
Sequence of Amine oxidase [flavin-containing] B (P19643 whole entry): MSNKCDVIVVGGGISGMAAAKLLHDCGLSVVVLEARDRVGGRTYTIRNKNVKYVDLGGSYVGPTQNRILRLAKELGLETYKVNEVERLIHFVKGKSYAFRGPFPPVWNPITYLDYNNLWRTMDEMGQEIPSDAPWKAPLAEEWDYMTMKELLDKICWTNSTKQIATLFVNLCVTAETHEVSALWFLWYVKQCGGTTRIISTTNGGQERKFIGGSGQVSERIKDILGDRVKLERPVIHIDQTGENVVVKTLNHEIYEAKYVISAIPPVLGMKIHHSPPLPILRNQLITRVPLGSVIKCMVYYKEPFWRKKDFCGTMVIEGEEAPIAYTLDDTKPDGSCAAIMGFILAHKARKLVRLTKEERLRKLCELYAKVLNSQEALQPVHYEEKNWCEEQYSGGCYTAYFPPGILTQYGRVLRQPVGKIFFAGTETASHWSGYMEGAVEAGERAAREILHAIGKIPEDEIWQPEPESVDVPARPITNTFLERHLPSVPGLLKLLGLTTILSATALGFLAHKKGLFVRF

[3] = target: T1, Voltage-gated L-type calcium channel (Rattus norvegicus, UniProt P22002+Q02485+P27732); experiment: Inhibition of rat DHP binding site of L-type calcium channel at 10 uM
[4] = target: T1, Voltage-gated L-type calcium channel; experiment: Inhibition of rat verapamil binding site of L-type calcium channel at 10 uM
[5] = target: Nuclear receptor subfamily 1 group I member 2 (Homo sapiens, UniProt O75469); experiment: Activity at PXR
Sequence of Nuclear receptor subfamily 1 group I member 2 (O75469 whole entry): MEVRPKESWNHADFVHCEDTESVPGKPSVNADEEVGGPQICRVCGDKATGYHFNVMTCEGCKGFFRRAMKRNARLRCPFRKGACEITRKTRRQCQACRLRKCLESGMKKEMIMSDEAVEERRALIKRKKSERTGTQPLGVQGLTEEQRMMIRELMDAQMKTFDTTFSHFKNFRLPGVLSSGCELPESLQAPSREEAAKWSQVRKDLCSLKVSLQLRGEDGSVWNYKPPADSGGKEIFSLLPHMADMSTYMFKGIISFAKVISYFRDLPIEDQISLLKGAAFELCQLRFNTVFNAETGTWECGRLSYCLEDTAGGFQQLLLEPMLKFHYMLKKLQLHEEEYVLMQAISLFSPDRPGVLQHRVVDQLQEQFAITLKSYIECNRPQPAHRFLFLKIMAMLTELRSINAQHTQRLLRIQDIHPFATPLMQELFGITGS

[6] = target: T2, Cytochrome P450 2C19 (Homo sapiens, UniProt P33261); experiment: Inhibition of CYP2C19 in human TC5 cells; assay type: ADME, cell-based
T2 sequence (P33261 whole entry): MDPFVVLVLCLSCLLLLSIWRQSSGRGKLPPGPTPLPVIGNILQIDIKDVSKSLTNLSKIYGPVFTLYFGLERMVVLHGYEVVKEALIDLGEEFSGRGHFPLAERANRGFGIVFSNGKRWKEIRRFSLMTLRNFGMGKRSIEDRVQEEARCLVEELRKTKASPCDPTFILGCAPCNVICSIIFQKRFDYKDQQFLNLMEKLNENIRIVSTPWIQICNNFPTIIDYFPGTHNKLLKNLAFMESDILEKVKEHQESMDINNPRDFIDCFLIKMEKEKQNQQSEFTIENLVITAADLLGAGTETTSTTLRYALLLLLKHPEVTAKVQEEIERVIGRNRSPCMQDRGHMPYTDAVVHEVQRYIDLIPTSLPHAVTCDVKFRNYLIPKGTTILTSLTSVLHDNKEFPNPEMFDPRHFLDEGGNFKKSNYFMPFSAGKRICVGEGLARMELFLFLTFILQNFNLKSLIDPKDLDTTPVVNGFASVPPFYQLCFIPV

[7] = target: T3, Cytochrome P450 2D6 (Homo sapiens, UniProt P10635); experiment: Inhibition of CYP2D6 in human TC5 cells; assay type: ADME, cell-based
T3 sequence (P10635 whole entry): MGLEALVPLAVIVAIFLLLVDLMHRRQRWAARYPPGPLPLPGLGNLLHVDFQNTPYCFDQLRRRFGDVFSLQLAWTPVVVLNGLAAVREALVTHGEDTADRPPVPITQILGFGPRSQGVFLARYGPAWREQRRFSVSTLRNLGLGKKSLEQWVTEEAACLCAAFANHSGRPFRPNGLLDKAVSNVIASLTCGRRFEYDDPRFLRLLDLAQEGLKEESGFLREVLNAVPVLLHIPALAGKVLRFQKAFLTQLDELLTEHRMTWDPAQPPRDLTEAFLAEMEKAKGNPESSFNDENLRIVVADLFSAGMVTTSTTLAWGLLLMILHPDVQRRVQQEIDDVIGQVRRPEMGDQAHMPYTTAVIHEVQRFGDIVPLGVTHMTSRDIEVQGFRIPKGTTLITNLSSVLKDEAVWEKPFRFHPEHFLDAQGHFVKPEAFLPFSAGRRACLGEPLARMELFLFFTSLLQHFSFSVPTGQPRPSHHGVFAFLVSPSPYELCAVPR

[8] = target: Cytochrome P450 2C8 (Homo sapiens, UniProt P10632); experiment: Inhibition of CYP2C8; assay type: ADME
Sequence of Cytochrome P450 2C8 (P10632 whole entry): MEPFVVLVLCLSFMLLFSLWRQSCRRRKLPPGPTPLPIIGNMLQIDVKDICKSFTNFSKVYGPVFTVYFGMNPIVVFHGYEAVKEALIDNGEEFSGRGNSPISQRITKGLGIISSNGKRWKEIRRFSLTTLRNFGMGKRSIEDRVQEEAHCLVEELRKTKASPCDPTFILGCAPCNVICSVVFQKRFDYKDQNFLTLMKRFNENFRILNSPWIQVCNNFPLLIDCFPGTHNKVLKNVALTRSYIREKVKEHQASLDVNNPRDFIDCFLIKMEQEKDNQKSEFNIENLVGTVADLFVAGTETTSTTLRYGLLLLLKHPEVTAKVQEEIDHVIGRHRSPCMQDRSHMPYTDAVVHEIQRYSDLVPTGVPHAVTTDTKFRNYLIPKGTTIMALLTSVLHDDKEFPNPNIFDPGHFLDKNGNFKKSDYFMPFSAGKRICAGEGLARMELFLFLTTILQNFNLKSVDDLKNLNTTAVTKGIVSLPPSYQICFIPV

[9] = target: T2, Cytochrome P450 2C19; experiment: Inhibition of CYP2C19; assay type: ADME
[10] = target: T3, Cytochrome P450 2D6; experiment: Inhibition of CYP2D6; assay type: ADME
[11] = target: Cytochrome P450 2B6 (Homo sapiens, UniProt P20813); experiment: Inhibition of CYP2B6; assay type: ADME
[12] = target: T4, Cytochrome P450 2C9 (Homo sapiens, UniProt P11712); experiment: Inhibition of CYP2C9; assay type: ADME
T4 sequence (P11712 whole entry): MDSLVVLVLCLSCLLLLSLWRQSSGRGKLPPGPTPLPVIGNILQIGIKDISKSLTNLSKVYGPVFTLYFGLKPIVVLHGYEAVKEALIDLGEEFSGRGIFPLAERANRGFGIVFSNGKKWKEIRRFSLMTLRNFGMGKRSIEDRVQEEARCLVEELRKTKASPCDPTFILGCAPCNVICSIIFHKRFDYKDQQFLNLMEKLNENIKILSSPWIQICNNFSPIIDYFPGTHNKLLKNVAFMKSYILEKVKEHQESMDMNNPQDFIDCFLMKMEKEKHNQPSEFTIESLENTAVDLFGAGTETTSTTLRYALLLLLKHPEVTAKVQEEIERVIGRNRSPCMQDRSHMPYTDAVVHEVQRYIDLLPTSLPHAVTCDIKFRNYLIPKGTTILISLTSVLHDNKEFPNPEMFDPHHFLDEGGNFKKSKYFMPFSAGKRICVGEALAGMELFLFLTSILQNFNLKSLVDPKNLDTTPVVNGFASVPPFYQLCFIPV

[13] = target: T5, Cytochrome P450 3A4 (Homo sapiens, UniProt P08684); experiment: Inhibition of CYP3A4 using BZR as substrate; assay type: ADME
T5 sequence (P08684 whole entry): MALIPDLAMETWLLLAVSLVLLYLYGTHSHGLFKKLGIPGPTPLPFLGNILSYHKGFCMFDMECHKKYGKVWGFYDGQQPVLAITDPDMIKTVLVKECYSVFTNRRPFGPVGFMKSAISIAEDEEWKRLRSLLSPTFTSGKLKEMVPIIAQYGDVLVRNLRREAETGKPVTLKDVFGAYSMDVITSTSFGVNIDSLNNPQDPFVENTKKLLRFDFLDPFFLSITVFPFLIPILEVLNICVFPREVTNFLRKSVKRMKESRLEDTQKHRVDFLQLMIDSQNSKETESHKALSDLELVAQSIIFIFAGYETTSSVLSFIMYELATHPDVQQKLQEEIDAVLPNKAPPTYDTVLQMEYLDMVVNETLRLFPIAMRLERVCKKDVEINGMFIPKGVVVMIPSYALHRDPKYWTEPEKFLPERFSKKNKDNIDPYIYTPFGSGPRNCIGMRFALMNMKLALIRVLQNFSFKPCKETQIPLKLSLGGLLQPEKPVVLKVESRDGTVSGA

[14] = target: T4, Cytochrome P450 2C9; experiment: Inhibition of CYP2C9 in human TC5 cells; assay type: ADME, cell-based
[15] = target: Cytochrome P450 1A2 (Homo sapiens, UniProt P05177); experiment: Inhibition of CYP1A2; assay type: ADME
[16] = target: T5, Cytochrome P450 3A4; experiment: Inhibition of CYP3A4 using BFC as substrate; assay type: ADME
[17] = target: Prothrombin (Homo sapiens, UniProt P00734); experiment: Inhibition of thrombin
[18] = target: Vitamin K-dependent protein C (Homo sapiens, UniProt P04070); experiment: Inhibition of activated protein C
[19] = target: Urokinase-type plasminogen activator (Homo sapiens, UniProt P00749); experiment: Inhibition of u-PA
[20] = target: Plasminogen (Homo sapiens, UniProt P00747); experiment: Inhibition of plasmin
Sequence of Plasminogen (P00747 97-580 limits assumed): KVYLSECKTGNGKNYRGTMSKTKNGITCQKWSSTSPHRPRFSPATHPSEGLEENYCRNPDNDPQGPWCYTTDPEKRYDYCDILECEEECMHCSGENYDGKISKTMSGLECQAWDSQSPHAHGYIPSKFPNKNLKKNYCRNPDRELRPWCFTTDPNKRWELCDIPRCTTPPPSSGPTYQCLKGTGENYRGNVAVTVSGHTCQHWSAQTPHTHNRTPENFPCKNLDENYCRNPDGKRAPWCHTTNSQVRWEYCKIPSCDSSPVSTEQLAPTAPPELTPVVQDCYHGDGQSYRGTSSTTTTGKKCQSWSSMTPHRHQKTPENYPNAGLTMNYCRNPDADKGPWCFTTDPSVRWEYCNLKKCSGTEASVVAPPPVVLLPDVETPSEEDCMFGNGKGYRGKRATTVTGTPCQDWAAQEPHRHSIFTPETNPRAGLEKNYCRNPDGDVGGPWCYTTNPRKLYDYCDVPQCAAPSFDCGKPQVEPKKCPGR
Sequence of Plasminogen (P00747 581-810 limits assumed): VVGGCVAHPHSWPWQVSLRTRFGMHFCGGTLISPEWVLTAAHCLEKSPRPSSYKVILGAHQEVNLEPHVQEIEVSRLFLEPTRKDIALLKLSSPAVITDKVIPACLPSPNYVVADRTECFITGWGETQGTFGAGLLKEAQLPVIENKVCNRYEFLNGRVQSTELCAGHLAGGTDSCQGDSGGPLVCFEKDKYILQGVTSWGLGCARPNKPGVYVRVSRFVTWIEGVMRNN

[21] = target: Tissue-type plasminogen activator (Homo sapiens, UniProt P00750); experiment: Inhibition of t-PA
[22] = target: T5, Cytochrome P450 3A4; experiment: Inhibition of CYP3A4 in human TC5 cells; assay type: ADME, cell-based
[23] = tested on: Rattus norvegicus; experiment: Total clearance in rat at 7 mg/kg, iv; assay type: ADME, organism-based; design: dose 7 mg/kg, route intravenous; conditions: in vivo
[24] = Volume of distribution at steady state in rat at 7 mg/kg, iv; assay type: ADME, organism-based; design: dose 7 mg/kg, route intravenous; conditions: in vivo, read-out: Vdss
[25] = Half life in rat at 7 mg/kg, iv; assay type: ADME, organism-based; design: dose 7 mg/kg, route intravenous; conditions: in vivo
[26] = Mean residence time in rat at 7 mg/kg, iv; assay type: ADME, organism-based; design: dose 7 mg/kg, route intravenous; conditions: in vivo
[27] = Oral Bioavailability in rat at 10 mg/kg; assay type: ADME, organism-based; conditions: in vivo
[28] = tested on: Canis familiaris; experiment: Total clearance in dog at 8.3 mg/kg, iv; assay type: ADME, organism-based, Canis lupus familiaris; design: dose 8.3 mg/kg, route intravenous; conditions: in vivo
[29] = Volume of distribution at steady state in dog at 8.3 mg/kg, iv; assay type: ADME, organism-based, Canis lupus familiaris; design: dose 8.3 mg/kg, route intravenous; conditions: in vivo, read-out: Vdss
[30] = Half life in dog at 8.3 mg/kg, iv; assay type: ADME, organism-based, Canis lupus familiaris; design: dose 8.3 mg/kg, route intravenous; conditions: in vivo
[31] = Mean residence time in dog at 8.3 mg/kg, iv; assay type: ADME, organism-based, Canis lupus familiaris; design: dose 8.3 mg/kg, route intravenous; conditions: in vivo
[32] = Oral bioavailability in dog at 7 mg/kg; assay type: ADME, organism-based, Canis lupus familiaris; conditions: in vivo
[33] = tested on: Rhesus monkey; experiment: Total clearance in monkey at 10 mg/kg, iv; assay type: ADME, organism-based, Macaca mulatta; design: dose 10 mg/kg, route intravenous; conditions: in vivo
[34] = Volume of distribution at steady state in monkey at 10 mg/kg, iv; assay type: ADME, organism-based, Macaca mulatta; design: dose 10 mg/kg, route intravenous; conditions: rhesus monkey, in vivo, read-out: Vdss
[35] = Half life in monkey at 10 mg/kg, iv; assay type: ADME, organism-based, Macaca mulatta; design: dose 10 mg/kg, route intravenous; conditions: rhesus monkey, in vivo
[36] = Mean residence time in monkey at 10 mg/kg, iv; assay type: ADME, organism-based, Macaca mulatta; design: dose 10 mg/kg, route intravenous; conditions: rhesus monkey, in vivo
[37] = Bioavailability in monkey at 10 mg/kg, po; assay type: ADME, organism-based, Macaca mulatta; conditions: rhesus monkey, in vivo
[38] = target: Coagulation factor X (Homo sapiens, UniProt P00742); experiment: Inhibition of human factor 10a-mediated cleavage of synthetic substrate S-2222
Sequence of Coagulation factor X (P00742 41-179 limits assumed): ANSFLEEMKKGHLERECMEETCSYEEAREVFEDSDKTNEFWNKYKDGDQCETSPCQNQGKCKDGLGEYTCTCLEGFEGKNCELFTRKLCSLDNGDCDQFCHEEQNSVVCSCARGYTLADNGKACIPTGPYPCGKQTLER
Sequence of Coagulation factor X (P00742 235-488 limits assumed): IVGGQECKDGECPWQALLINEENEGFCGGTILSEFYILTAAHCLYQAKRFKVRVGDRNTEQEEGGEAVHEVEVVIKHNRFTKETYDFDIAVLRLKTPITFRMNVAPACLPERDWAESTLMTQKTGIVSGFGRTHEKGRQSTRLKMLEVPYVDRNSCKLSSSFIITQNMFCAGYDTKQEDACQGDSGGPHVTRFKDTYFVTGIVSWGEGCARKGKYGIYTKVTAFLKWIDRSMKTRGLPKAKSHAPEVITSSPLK

[39] = tested on: Plasma

inhibition (INH) [1]: Not Active
inhibition (INH) [2]: Not Active
inhibition (INH) [3]: Not Active
inhibition (INH) [4]: Not Active
EC50 [5]: > 25 µM
IC50 [8]: > 40 µM
IC50 [9]: > 40 µM
IC50 [10]: > 40 µM
IC50 [11]: > 40 µM
IC50 [12]: 29.2 µM
IC50 [13]: > 40 µM
IC50 [15]: > 40 µM
IC50 [16]: 18.5 µM
Ki [17]: 6.6 µM
Ki [18]: > 18 µM
Ki [19]: > 7.8 µM
Ki [20]: > 16 µM
Ki [21]: 3.7 µM
clearance [23]: 1.7 mL/min/kg
Vd [24]: 0.19 L/kg
half-life [25]: 144 min
MRT [26]: 1.9 h
bioavailability [27]: 50%
clearance [28]: 0.12 mL/min/kg
Vd [29]: 0.11 L/kg
half-life [30]: 618 min
MRT [31]: 16 h
bioavailability [32]: 77%
clearance [33]: 2.2 mL/min/kg
Vd [34]: 1.8 L/kg
half-life [35]: 174 min
MRT [36]: 1.5 h
bioavailability [37]: 49%
SMILES: Cc1cc2cc(N=C(NC#N)N[C@H]3CCCCN(CC(=O)N4CCCC4)C3=O)ccc2o1
IC50 [6]: > 200 µM
IC50 [7]: > 200 µM
IC50 [14]: > 200 µM
IC50 [22]: > 200 µM

IC50 [38]: 928 nM
SMILES: Cc1cc2cc(N/C(=N\C#N)N[C@H]3CCCN(CC(=O)N4CCCC4)C3=O)ccc2o1

IC50 [38]: 2600 nM
SMILES: N#C/N=C(\Nc1ccc2oc(C#N)cc2c1)N[C@H]1CCCCN(CC(=O)N2CCCC2)C1=O

IC50 [38]: > 32000 nM
SMILES: Cc1cc2cc(N/C(=N\C#N)N[C@H]3CCN(CC(=O)N4CCCC4)C3=O)ccc2o1

IC50 [38]: 11900 nM
SMILES: Cc1nc2ccc(N=C(NC#N)N[C@H]3CCCCN(CC(=O)N4CCCC4)C3=O)cc2[nH]1

IC50 [38]: 2940 nM
SMILES: Cc1coc2ccc(N=C(NC#N)N[C@H]3CCCCN(CC(=O)N4CCCC4)C3=O)cc12

IC50 [38]: 2730 nM
SMILES: Cc1cc2c(F)c(N/C(=N\C#N)N[C@H]3CCCCN(CC(=O)N4CCCC4)C3=O)ccc2o1

SMILES: Cc1cc2cc(N/C(=N\C#N)N[C@H]3CCCCN(CC(=O)N4CCC[C@@H]4CN)C3=O)ccc2o1
IC50 [38]: 22 nM
EC [39]: 27 µM

IC50 [38]: > 34000 nM
SMILES: Cc1cn2cc(N/C(=N\C#N)N[C@H]3CCCCN(CC(=O)N4CCCC4)C3=O)ccc2n1

IC50 [38]: 349 nM
SMILES: Cc1oc2ccc(N=C(NC#N)N[C@H]3CCCCN(CC(=O)N4CCCC4)C3=O)cc2c1C

IC50 [38]: 780 nM
SMILES: N#C/N=C(\Nc1ccc2ccccc2c1)N[C@H]1CCCCN(CC(=O)N2CCCC2)C1=O

IC50 [38]: 21 nM
SMILES: Cc1cc2cc(N=C(NC#N)N[C@H]3CCCCN(CC(=O)N4CCCC4)C3=O)cc(C)c2o1

SMILES: CC(=O)NC[C@@H]1CCCN1C(=O)CN1CCCC[C@H](N/C(=N\C#N)Nc2ccc3oc(C)cc3c2)C1=O
IC50 [38]: 54 nM
EC [39]: >50 µM

IC50 [38]: > 34000 nM
SMILES: Cc1cc2cc(N=C(NC#N)N[C@H]3CCCCN(CC(=O)N4CCCC4)C3=O)ccc2[nH]1

IC50 [38]: 1300 nM
SMILES: Cc1cc2ccc(N/C(=N\C#N)N[C@H]3CCCCN(CC(=O)N4CCCC4)C3=O)cc2[nH]1

SMILES: Cc1cc2cc(N/C(=N\C#N)N[C@H]3CCCCN(CC(=O)N4CC5CC5C4)C3=O)ccc2o1 (stereo partly drawn)
IC50 [38]: 15 nM
EC [39]: 56 µM

IC50 [38]: 2880 nM
SMILES: Cc1cc2cc(N=C(NC#N)N[C@H]3CCCCN(CC(=O)N4CCCC4)C3=O)ccc2s1

IC50 [38]: 386 nM
SMILES: Cc1cc2cc(N/C(=N\C#N)N[C@H]3CCCCN(CC(=O)N4CCC[C@H]4CN)C3=O)ccc2o1

IC50 [38]: 15500 nM
SMILES: CCc1cc2cc(N=C(NC#N)N[C@H]3CCCCN(CC(=O)N4CCCC4)C3=O)ccc2o1

IC50 [38]: 84 nM
SMILES: N#C/N=C(\Nc1ccc2occc2c1)N[C@H]1CCCCN(CC(=O)N2CCCC2)C1=O

IC50 [38]: 2400 nM
SMILES: Cn1cc2cc(N/C(=N\C#N)N[C@H]3CCCCN(CC(=O)N4CCCC4)C3=O)ccc2n1

IC50 [38]: 76 nM
SMILES: Cc1cc2cc(N=C(NC#N)N[C@H]3CCCCN(CC(=O)N4CCCC4)C3=O)c(F)cc2o1

SMILES: CC(=O)NC[C@H]1CCCN1C(=O)CN1CCCC[C@H](N/C(=N\C#N)Nc2ccc3oc(C)cc3c2)C1=O
IC50 [38]: 28 nM
EC [39]: 33 µM

IC50 [38]: 11 nM
SMILES: Cc1cc2cc(N/C(=N\C#N)N[C@H]3CCCCN(CC(=O)N4CCCC4)C3=O)cc(F)c2o1

IC50 [38]: 195 nM
SMILES: Cc1cc2cc(N=C(NC#N)NC3CCCCCN(CC(=O)N4CCCC4)C3=O)ccc2o1 (racemic)

IC50 [38]: > 34000 nM
SMILES: Cc1cc2ccc(N/C(=N\C#N)N[C@H]3CCCCN(CC(=O)N4CCCC4)C3=O)cc2o1

IC50 [38]: 167 nM
SMILES: Cc1cc2cc(N/C(=N\C#N)N[C@H]3CCCCN(CC(=O)N4CCCC4)C3=O)cc(C(F)(F)F)c2o1

IC50 [38]: 14800 nM
SMILES: COc1cc(N=C(NC#N)N[C@H]2CCCCN(CC(=O)N3CCCC3)C2=O)cc2cc(C)oc12

IC50 [38]: 2680 nM
SMILES: Cc1nc2cc(N/C(=N\C#N)N[C@H]3CCCCN(CC(=O)N4CCCC4)C3=O)ccc2o1

SMILES: Cc1cc2cc(N/C(=N\C#N)N[C@H]3CCCCN(CC(=O)N4CCCC4Cc4ccccc4)C3=O)ccc2o1 (stereo partly drawn)
IC50 [38]: 19 nM
EC [39]: >50 µM

SMILES: Cc1cc2cc(N/C(=N\C#N)N[C@H]3CCCCN(CC(=O)N4C5CCC4CNC5)C3=O)ccc2o1
IC50 [38]: 5 nM
EC [39]: 11.5 µM

IC50 [38]: 30000 nM
SMILES: Cc1cc2cc(N=C(NC#N)N[C@@H]3CCN(CC(=O)N4CCCC4)C3=O)ccc2o1

IC50 [38]: 18800 nM
SMILES: Cc1nc2ccc(N/C(=N\C#N)N[C@H]3CCCCN(CC(=O)N4CCCC4)C3=O)cc2o1

SMILES: Cc1cc2cc(N/C(=N\C#N)N[C@H]3CCCCN(CC(=O)N4CCC(Cc5ccccc5)C4)C3=O)ccc2o1 (stereo partly drawn)
IC50 [38]: 53 nM
EC [39]: >50 µM

IC50 [38]: 27 nM
SMILES: Cc1cc2cc(N/C(=N\C#N)N[C@H]3CCCCN(CC(=O)N4CCCC4)C3=O)cc(Cl)c2o1
